Measurements reported in patent publication US5428031A, “Methods of treating cardiac arrhythmia” (priority 1993, dated 1995).

Target: T1, IKr (rapidly activating delayed rectifier K+ current) (Cavia porcellus, UniProt O08703)
T1 construct: Guinea pig ventricular myocytes were isolated; endogenous in cells; host or cells: isolated guinea pig ventricular myocytes
T1 sequence (O08703 1-1294): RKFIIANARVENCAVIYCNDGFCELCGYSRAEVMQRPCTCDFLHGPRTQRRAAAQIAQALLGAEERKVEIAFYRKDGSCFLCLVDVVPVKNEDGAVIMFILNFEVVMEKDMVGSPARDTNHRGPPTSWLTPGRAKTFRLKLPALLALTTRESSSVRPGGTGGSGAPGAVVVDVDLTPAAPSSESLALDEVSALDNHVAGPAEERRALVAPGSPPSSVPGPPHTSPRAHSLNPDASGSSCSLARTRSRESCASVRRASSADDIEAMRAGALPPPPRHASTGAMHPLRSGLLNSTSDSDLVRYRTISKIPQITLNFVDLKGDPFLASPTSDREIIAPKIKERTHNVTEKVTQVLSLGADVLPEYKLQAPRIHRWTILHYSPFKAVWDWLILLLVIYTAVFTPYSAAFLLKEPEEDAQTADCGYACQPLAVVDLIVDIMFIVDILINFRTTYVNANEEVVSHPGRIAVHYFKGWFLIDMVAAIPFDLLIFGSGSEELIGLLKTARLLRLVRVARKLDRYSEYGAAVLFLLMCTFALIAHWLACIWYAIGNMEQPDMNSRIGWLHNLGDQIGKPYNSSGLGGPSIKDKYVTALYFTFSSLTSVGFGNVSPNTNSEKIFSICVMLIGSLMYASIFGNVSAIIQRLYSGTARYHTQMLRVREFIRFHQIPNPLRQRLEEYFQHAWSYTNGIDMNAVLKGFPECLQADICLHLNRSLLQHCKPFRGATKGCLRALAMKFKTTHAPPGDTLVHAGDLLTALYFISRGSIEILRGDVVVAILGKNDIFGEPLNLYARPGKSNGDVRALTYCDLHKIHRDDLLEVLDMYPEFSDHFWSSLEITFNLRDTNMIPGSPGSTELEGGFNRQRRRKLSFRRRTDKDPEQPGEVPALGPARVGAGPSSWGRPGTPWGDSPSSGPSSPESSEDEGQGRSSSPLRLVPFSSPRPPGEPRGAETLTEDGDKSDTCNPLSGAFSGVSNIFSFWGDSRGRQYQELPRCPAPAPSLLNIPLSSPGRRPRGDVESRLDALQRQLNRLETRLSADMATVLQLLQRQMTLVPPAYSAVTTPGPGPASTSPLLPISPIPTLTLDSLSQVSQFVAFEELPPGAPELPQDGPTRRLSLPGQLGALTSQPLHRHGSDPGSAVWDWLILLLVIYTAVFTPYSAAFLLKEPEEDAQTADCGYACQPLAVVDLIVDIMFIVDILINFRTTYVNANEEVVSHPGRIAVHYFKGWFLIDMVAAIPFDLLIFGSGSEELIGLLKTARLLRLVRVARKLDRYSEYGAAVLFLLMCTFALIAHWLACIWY
Assay: voltage clamp measurement of IKr block in isolated guinea pig ventricular myocytes
Format: cell-based
Experimental: Guinea pig ventricular myocytes were isolated using a modification of the procedure described by Mitra R and Morad M., "A Uniform Enzymatic Method for Dissociation of Myocytes from Hearts and Stomachs of Nertilorates", Am. J. Physiol. […] Excised hearts were perfused through the aorta (retrograde fashion) at a rate of 10 ml/min with oxygenated, warmed (37° C.) solutions described below. […] The head was then perfused with the same nominally Ca^2+ -free solution containing 150 units/ml Type II collagenase (Worthington) and 0.5 units/ml Type XIV protease (Sigma) for 8 minutes. This perfusate was followed by a Tyrode's solution containing 0.2 mM CaCl2 (without enzymes) for 5 minutes. The digested ventricles were cut into small pieces and gently shaken until cells were visibly dispersed. The cells were stored at room temperature until use, within 8 hours after isolation.
The suction microelectrode technique described by Giles, W. R. and Shibata, E. F., "Voltage clamp of bull-frog cardiac pacemaker cells: a quantitative, analysis of potassium currents". J. Physiol. […] Microelectrodes were made by using a two stage puller from square bore (1.0 mm o.d.) borosilicate capillary tubing. […] After establishing whole-cell recording mode, negative pressure was maintained on the pipette using a 1 ml gas-tight syringe attached via air tight tubing to the suction port of the microelectrode holder. This minimized dialysis of the cell with the pipette solution.
To record K^+ currents, the cells were bathed in a Ca^2+ -free Tyrode's :solution containing […] nisoldipine. […] A List EPC-7 clamp amplifier was used to voltage clamp the isolated cells. […] A variety of voltage pulse protocols were used to measure Ca^2+ current and three types of K^+ currents: inward rectifier (IK1), rapidly activating delayed rectifier (IKr) and the slowly activating delayed rectifier (IKs). Sanguinetti M. C. and Jurkiewicz, N. K., "Two components of cardiac delayed rectifier K^+ current: Differential sensitivity to block by Class III antiarrhythmic agents". […] Data was analyzed as % block from control membrane currents.
Nisoldipins was prepared as a 4 mM stock solution in polyethylne glycol 200. Compounds tested in this series were prepared as 10 mM stock solutions in polyethylene glycol 400 or dimethyl sulfoxide.

## Cc1cccc(NC(=O)N[C@@H]2N=C(c3ccccc3)c3ccccc3N(C)C2=O)c1 [Compound 4, (R)-N-(2,3-dihydro-1-methyl-2-oxo-5-phenyl-1H-1,4-benzodiazepin-3-yl)-N'-(3-methylphenyl)urea]
  IC50: ~5 µM
1 μM
  effect on IKr: Little or no effect
